# Data reported in patent US20190022220A1, “LIGHT-ACTIVATED ANCHORING OF THERAPEUTIC FACTORS TO TISSUES” (The Board of Trustees of the Leland Stanford Junior …, priority 2016, published 2019).
# Entries after “also recorded” stand apart in the source; their conditions may differ.
# Key:
# [1] = system: human mesenchymal stem cells (hMSCs); test: Live-dead assay of hMSCs encapsulated in collagen gels formed with riboflavin and blue light; format: cell-based; settings: 72 hours; riboflavin 0.25 mM or less; 20 sec blue light at 100 mW/cm^2; cells in collagen gel
# Excerpt: A major clinical challenge is the delivery of cells, particularly stem cells, to an diseased or damaged area of the body. Currently, the stem cells are typically injected in suspension to an area without a specific or effective means to have them target and adhere to a particular location. Providing a immobilizing matrix and microenvironment in which to settle and grow while remaining immobilized to that are would be an advancement in the art. Cells can be encapsulated within a biomolecular gel according to the present invention. […] Using this method, hMSCs and other cell types can be encapsulated and positioned to a specific location in the body. For instance, a collagen gel encapsulating hMSCs can be formed and adhered in situ using blue light and riboflavin on the surface of a corneal wound, creating a “living reservoir” of therapeutic factors that are secreted by the immobilized hMSCs. The formed gel adheres to the target tissue due to crosslinks formed between the exogenously applied collagen and the collagen on the wound bed or target tissue which is shown by example in FIG. 9D.
# [2] = system: primary rabbit corneal epithelial cells (CECs); test: Proliferation of corneal epithelial cells on EGF-bound collagen surfaces; format: cell-based; settings: over 5 days; EGF bound to collagen by V-CXL vs collagen without covalently linked EGF; both concentrations tested
# Experimental: Enhanced cell proliferation on growth factor fortified collagen gels. Late-passage primary rabbit corneal epithelial cells (CECs) of the same cell density were grown on surfaces with EGF bound to collagen using V-CXL as well as standard collagen-coated tissue-culture polystyrene without covalently linked EGF.
# [3] = EGF release from V-CXL collagen gels (ELISA); format: physicochemical; settings: 37° C., 2 to 120 hours
# Experimental: FIG. 9C summarizes the storage and loss modulus of collagen gels crosslinked using riboflavin and blue light exposure of different time intervals.
# Growth factor release. To understand the ability of growth factors to be liberated from crosslinked collagen, human recombinant EGF (Peprotech) was incorporated within collagen gels during gelation. A neutralized 3% collagen solution with 0.25 mM riboflavin was exposed to blue light (˜458 nm) at 60 mW/cm^2 for 20 seconds. The formed gel was then cut into cylindrical discs and placed in a PBS solution with or without 0.1% versus 0.2% collagenase at 37° C. on a shaker. The solution was then sampled at intervals starting at 2 hours to 120 hours. An ELISA kit was then used to evaluate the concentration of released EGF in the solution.
# [4] = system: 2 mm corneal debridement wound; test: Rodent corneal debridement wound healing and ocular tolerance study; format: in vivo
# Experimental: FIGS. 13A-13D show results of EGF surface-coupling by V-CXL in a rodent corneal debridement animal model. A 2 mm corneal debridement was performed in three groups of two rodent eyes each (average corneal diameter=3 mm). Shown here are photographs of fluorescein-stained rodent eyes at 24 hours: EGF encapsulated within a collagen gel using riboflavin and blue light exposure for 5 seconds (FIG. 13A), EGF coupling directly to corneal stroma using riboflavin and blue light exposure for 5 seconds (FIG. 13B), topical EGF only (FIG. 13C), and no treatment (FIG. 13D). Slit lamp photos of the wounded and treated eyes are shown on the left, and fluorescein staining of the same eyes are shown on the right.
# Mouse corneas were subject to 2 mm diameter circular corneal debridement and then treated with (1) a collagen gel solution containing 0.01 mg/ml of EGF, and 0.1 mg/ml riboflavin and exposed to blue light (˜458 nm) for 5 seconds, (2) an aqueous EGF solution containing 0.01 mg/ml EGF and 0.1 mg/ml riboflavin and exposed to blue light for 5 seconds, (3) topical application of an aqueous solution of EGF alone at a concentration of 0.01 mg/mL, or (4) no treatment. The rodents were then examined at 24 hours and the wound areas examined by fluorescein staining.
# In vivo ocular tolerance and wound healing animal study: In an animal study in rodents, V-CXL was used to bind EGF to wounded corneas. Briefly, a 2 mm diameter debridement was performed, and the wound bed was treated topically with 0.025 mM of riboflavin mixed with 0.01 mg/mL of EGF delivered topically to the wound bed and allowed incubate for 10 minutes followed by 5 seconds of exposure to blue light (˜458 nm) at 60 mW/cm^2. The eye was then rinsed with BSS. Controls used were topical EGF alone and no treatment.
# NGF receptor = test: Ellipsometry of soluble NGF receptor binding to NGF-coupled collagen surfaces; settings: NGF photochemically coupled to collagen compared to physisorbed NGF
# Excerpt: V-CXL binds growth factors directly to collagen. V-CXL was used to bind EGF and NGF growth factors directly to collagen. Fluorometry (FIG. 3), surface plasmon resonance (FIG. 4), ellipsometry (FIG. 5), and ELISA (FIG. 6) were used to monitor and compare the chemical coupling versus physical adsorption of NGF and EGF to collagen surfaces. In these experiments, collagen was first chemically immobilized to either gold, glass, or polystyrene surfaces (depending on the method being used), followed by V-CXL-mediated coupling of either EGF or NGF (or their fluorescein-isothiocyanate (FITC)-labeled conjugates) to the collagen coating alone or physical adsorption of growth factor to collagen from aqueous solution.
# Exposure of NGF to blue light in the presence of riboflavin led to a step-increase in the layer thickness of the collagen-coated gold wafer.
molecule,measurement,setting,value
Cc1cc2nc3c(=O)[nH]c(=O)nc-3n(C[C@H](O)[C@H](O)[C@H](O)CO)c2cc1C [riboflavin],% living hMSCs (viability),[1],greater than 90%
epidermal growth factor [EGF],proliferation of senescent primary CECs,[2],greater proliferation
same,EGF release from collagen gel,[3]; 0.1% versus 0.2% collagenase in PBS,increases the release in a dose-dependent manner; also recorded: accelerated in a dose-dependent manner
same,EGF release from collagen gel,"[3]; PBS alone, 3% collagen, 0.25 mM riboflavin, blue light 60 mW/cm^2 20 seconds",relatively slow release and slow
same,wound area by fluorescein staining vs topical EGF alone or no treatment,"[4]; 24 hours, 0.01 mg/ml EGF, 0.1 mg/ml riboflavin, blue light (~458 nm) 5 seconds",smaller; also recorded: greater wound area reduction
same,reduction in wound area by fluorescein staining compared with controls,"[4]; 24 hours, EGF-coupled corneas (0.025 mM riboflavin, 0.01 mg/mL EGF, 5 s blue light) vs topical EGF alone and no treatment, n=2",greater reduction in wound area
same,wound area as % of the wound area in topical EGF-treated eyes,"[4]; 24 hours, V-CXL: 0.025 mM riboflavin + 0.01 mg/mL EGF, 5 seconds blue light (~458 nm) at 60 mW/cm^2, n=2, ImageJ analysis",approximately 50%
same,wound area as % of the wound area of untreated eyes,"[4]; 24 hours, V-CXL: 0.025 mM riboflavin + 0.01 mg/mL EGF, 5 seconds blue light at 60 mW/cm^2, n=2, ImageJ analysis",approximately 35%
same,"signs of ocular intolerance (conjunctival injection, swelling, discharge, corneal toxicity)",[4]; eyes treated with EGF and riboflavin in the V-CXL reaction,No signs of ocular intolerance
nerve growth factor [NGF],NGF receptor binding (change in relative layer thickness),NGF receptor,higher amount of NGF receptor binding; also recorded: greater NGF binding
